Experimental data from patent publication US20190269129A1, “COMPOSITION CONTAINING 1,2-DIBROMO-2,4-DICYANOBUTANE (DBDCB) AND ZINC PYRITHIONE (ZPT)” (LANXESS Deutschland GmbH, priority 2014, published 2019).

Key:
Assay type in all cases: cell-based
Details in all cases: for Activity of the biocides determined 1 week after germ addition, week 1: week 1, polymer emulsion pH 6.5; for Activity of the biocides determined 1 week after germ addition, week 2: week 2, polymer emulsion pH 6.5; for Activity of the biocides determined 1 week after germ addition, week 3: week 3, polymer emulsion pH 6.5; for Activity of the biocides determined 1 week after germ addition, week 4: week 4, polymer emulsion pH 6.5; for Activity of the biocides determined 1 week after germ addition, week 5: week 5, polymer emulsion pH 6.5; for Activity of the biocides determined 1 week after germ addition, week 6: week 6, polymer emulsion pH 6.5
[1] = test system: Molds: Acremonium strictum, Aspergillus niger and Geotrichum candidu; assay: Microbiological stress test, preservation of a polymer emulsion: molds
Excerpt: (§1) The preserving effect of an inventive composition comprising DBDCB and ZPT in a polymer emulsion (acrylate-based, pH=6.5) was investigated using a microbiological stress test. The microbiological stress test examines the susceptibility of water-based systems to microbial attack and the effect of preservatives. To this end, the preservatives are incorporated in defined concentrations into the water-based systems. […] Having knowledge of the microorganism populations prevalent in polymer emulsions and dispersions the experiment employed a mixture of the following microorganism types for testing: Molds: Acremonium strictum, Aspergillus niger and Geotrichum candidu.

[2] = test system: Yeasts: Candida albicans and Rhodotorula rubra; assay: Microbiological stress test, preservation of a polymer emulsion: yeasts
Excerpt: as §1, with “Yeasts: Candida albicans” for “Molds: Acremonium strictum, Aspergillus niger”, “Rhodotorula rubra.” for “Geotrichum candidu.”

[3] = test system: Bacteria: Escherichia coli, Pseudomonas aeruginosa and Staphylococcus aureus; assay: Microbiological stress test, preservation of a polymer emulsion: bacteria
Excerpt: as §1, with “Bacteria: Escherichia coli, Pseudomonas aeruginosa” for “Molds: Acremonium strictum, Aspergillus niger”, “Staphylococcus aureus.” for “Geotrichum candidu.”

**Q.** For `N#CCCC(Br)(C#N)CBr` (stereo not drawn) [DBDCB, 1,2-Dibromo-2,4-dicyanobutane], which “Activity of the biocides determined 1 week after germ addition, week 1” value (shortened to “Activity of the biocides … week 1”) ([1]; 0.025 wt % biocide added) is on record?
**A.** 0 (no reduction or only a minor reduction of the microbe level is observed (residual level of at least 10^5 bacteria/10^4 mold/yeast cells per g) (score of 0=poor))

**Q.** What about the “Activity of the biocides determined 1 week after germ addition, week 2” value (shortened to “Activity of the biocides … week 2”) ([1]; 0.025 wt % biocide added) of the same molecule?
**A.** 0 (no reduction or only a minor reduction of the microbe level is observed (residual level of at least 10^5 bacteria/10^4 mold/yeast cells per g) (score of 0=poor))

**Q.** And the “Activity of the biocides determined 1 week after germ addition, week 3” value (shortened to “Activity of the biocides … week 3”) ([1]; 0.025 wt % biocide added)?
**A.** 0 (no reduction or only a minor reduction of the microbe level is observed (residual level of at least 10^5 bacteria/10^4 mold/yeast cells per g) (score of 0=poor))

**Q.** What about the “Activity of the biocides determined 1 week after germ addition, week 4” value (shortened to “Activity of the biocides … week 4”) ([1]; 0.025 wt % biocide added) of the same molecule?
**A.** 0 (no reduction or only a minor reduction of the microbe level is observed (residual level of at least 10^5 bacteria/10^4 mold/yeast cells per g) (score of 0=poor))

**Q.** And the “Activity of the biocides determined 1 week after germ addition, week 5” value (shortened to “Activity of the biocides … week 5”) ([1]; 0.025 wt % biocide added)?
**A.** 0 (no reduction or only a minor reduction of the microbe level is observed (residual level of at least 10^5 bacteria/10^4 mold/yeast cells per g) (score of 0=poor))

**Q.** And the “Activity of the biocides determined 1 week after germ addition, week 6” value (shortened to “Activity of the biocides … week 6”) ([1]; 0.025 wt % biocide added)?
**A.** 0 (no reduction or only a minor reduction of the microbe level is observed (residual level of at least 10^5 bacteria/10^4 mold/yeast cells per g) (score of 0=poor))

**Q.** And the “Activity of the biocides … week 1” value ([1]; 0.05 wt % biocide added)?
**A.** 0 (no reduction or only a minor reduction of the microbe level is observed (residual level of at least 10^5 bacteria/10^4 mold/yeast cells per g) (score of 0=poor))

**Q.** And the “Activity of the biocides … week 2” value ([1]; 0.05 wt % biocide added)?
**A.** 0 (no reduction or only a minor reduction of the microbe level is observed (residual level of at least 10^5 bacteria/10^4 mold/yeast cells per g) (score of 0=poor))

**Q.** And the “Activity of the biocides … week 3” value ([1]; 0.05 wt % biocide added)?
**A.** 0 (no reduction or only a minor reduction of the microbe level is observed (residual level of at least 10^5 bacteria/10^4 mold/yeast cells per g) (score of 0=poor))

**Q.** And the “Activity of the biocides … week 4” value ([1]; 0.05 wt % biocide added)?
**A.** 0 (no reduction or only a minor reduction of the microbe level is observed (residual level of at least 10^5 bacteria/10^4 mold/yeast cells per g) (score of 0=poor))

**Q.** And the “Activity of the biocides … week 5” value ([1]; 0.05 wt % biocide added)?
**A.** 0 (no reduction or only a minor reduction of the microbe level is observed (residual level of at least 10^5 bacteria/10^4 mold/yeast cells per g) (score of 0=poor))

**Q.** And the “Activity of the biocides … week 6” value ([1]; 0.05 wt % biocide added)?
**A.** 0 (no reduction or only a minor reduction of the microbe level is observed (residual level of at least 10^5 bacteria/10^4 mold/yeast cells per g) (score of 0=poor))

**Q.** And the “Activity of the biocides … week 1” value ([2]; 0.025 wt % biocide added)?
**A.** 0 (no reduction or only a minor reduction of the microbe level is observed (residual level of at least 10^5 bacteria/10^4 mold/yeast cells per g) (score of 0=poor))

**Q.** What about the “Activity of the biocides … week 2” value ([2]; 0.025 wt % biocide added) of the same molecule?
**A.** 0 (no reduction or only a minor reduction of the microbe level is observed (residual level of at least 10^5 bacteria/10^4 mold/yeast cells per g) (score of 0=poor))

**Q.** What about the “Activity of the biocides … week 3” value ([2]; 0.025 wt % biocide added) of the same molecule?
**A.** 0 (no reduction or only a minor reduction of the microbe level is observed (residual level of at least 10^5 bacteria/10^4 mold/yeast cells per g) (score of 0=poor))

**Q.** And the “Activity of the biocides … week 4” value ([2]; 0.025 wt % biocide added)?
**A.** 0 (no reduction or only a minor reduction of the microbe level is observed (residual level of at least 10^5 bacteria/10^4 mold/yeast cells per g) (score of 0=poor))

**Q.** What about the “Activity of the biocides … week 5” value ([2]; 0.025 wt % biocide added) of the same molecule?
**A.** 0 (no reduction or only a minor reduction of the microbe level is observed (residual level of at least 10^5 bacteria/10^4 mold/yeast cells per g) (score of 0=poor))

**Q.** And the “Activity of the biocides … week 6” value ([2]; 0.025 wt % biocide added)?
**A.** 0 (no reduction or only a minor reduction of the microbe level is observed (residual level of at least 10^5 bacteria/10^4 mold/yeast cells per g) (score of 0=poor))

**Q.** And the “Activity of the biocides … week 1” value ([2]; 0.05 wt % biocide added)?
**A.** 0 (no reduction or only a minor reduction of the microbe level is observed (residual level of at least 10^5 bacteria/10^4 mold/yeast cells per g) (score of 0=poor))

**Q.** What about the “Activity of the biocides … week 2” value ([2]; 0.05 wt % biocide added) of the same molecule?
**A.** 0 (no reduction or only a minor reduction of the microbe level is observed (residual level of at least 10^5 bacteria/10^4 mold/yeast cells per g) (score of 0=poor))

**Q.** What about the “Activity of the biocides … week 3” value ([2]; 0.05 wt % biocide added) of the same molecule?
**A.** 0 (no reduction or only a minor reduction of the microbe level is observed (residual level of at least 10^5 bacteria/10^4 mold/yeast cells per g) (score of 0=poor))

**Q.** What about the “Activity of the biocides … week 4” value ([2]; 0.05 wt % biocide added) of the same molecule?
**A.** 0 (no reduction or only a minor reduction of the microbe level is observed (residual level of at least 10^5 bacteria/10^4 mold/yeast cells per g) (score of 0=poor))

**Q.** And the “Activity of the biocides … week 5” value ([2]; 0.05 wt % biocide added)?
**A.** 0 (no reduction or only a minor reduction of the microbe level is observed (residual level of at least 10^5 bacteria/10^4 mold/yeast cells per g) (score of 0=poor))

**Q.** And the “Activity of the biocides … week 6” value ([2]; 0.05 wt % biocide added)?
**A.** 0 (no reduction or only a minor reduction of the microbe level is observed (residual level of at least 10^5 bacteria/10^4 mold/yeast cells per g) (score of 0=poor))

**Q.** And the “Activity of the biocides … week 1” value ([3]; 0.025 wt % biocide added)?
**A.** 0 (no reduction or only a minor reduction of the microbe level is observed (residual level of at least 10^5 bacteria/10^4 mold/yeast cells per g) (score of 0=poor))

**Q.** And the “Activity of the biocides … week 2” value ([3]; 0.025 wt % biocide added)?
**A.** 0 (no reduction or only a minor reduction of the microbe level is observed (residual level of at least 10^5 bacteria/10^4 mold/yeast cells per g) (score of 0=poor))

**Q.** What about the “Activity of the biocides … week 3” value ([3]; 0.025 wt % biocide added) of the same molecule?
**A.** 0 (no reduction or only a minor reduction of the microbe level is observed (residual level of at least 10^5 bacteria/10^4 mold/yeast cells per g) (score of 0=poor))

**Q.** What about the “Activity of the biocides … week 4” value ([3]; 0.025 wt % biocide added) of the same molecule?
**A.** 0 (no reduction or only a minor reduction of the microbe level is observed (residual level of at least 10^5 bacteria/10^4 mold/yeast cells per g) (score of 0=poor))

**Q.** What about the “Activity of the biocides … week 5” value ([3]; 0.025 wt % biocide added) of the same molecule?
**A.** 0 (no reduction or only a minor reduction of the microbe level is observed (residual level of at least 10^5 bacteria/10^4 mold/yeast cells per g) (score of 0=poor))

**Q.** And the “Activity of the biocides … week 6” value ([3]; 0.025 wt % biocide added)?
**A.** 0 (no reduction or only a minor reduction of the microbe level is observed (residual level of at least 10^5 bacteria/10^4 mold/yeast cells per g) (score of 0=poor))

**Q.** What about the “Activity of the biocides … week 1” value ([3]; 0.05 wt % biocide added) of the same molecule?
**A.** 0 (no reduction or only a minor reduction of the microbe level is observed (residual level of at least 10^5 bacteria/10^4 mold/yeast cells per g) (score of 0=poor))

**Q.** What about the “Activity of the biocides … week 2” value ([3]; 0.05 wt % biocide added) of the same molecule?
**A.** 0 (no reduction or only a minor reduction of the microbe level is observed (residual level of at least 10^5 bacteria/10^4 mold/yeast cells per g) (score of 0=poor))

**Q.** What about the “Activity of the biocides … week 3” value ([3]; 0.05 wt % biocide added) of the same molecule?
**A.** 0 (no reduction or only a minor reduction of the microbe level is observed (residual level of at least 10^5 bacteria/10^4 mold/yeast cells per g) (score of 0=poor))

**Q.** And the “Activity of the biocides … week 4” value ([3]; 0.05 wt % biocide added)?
**A.** 0 (no reduction or only a minor reduction of the microbe level is observed (residual level of at least 10^5 bacteria/10^4 mold/yeast cells per g) (score of 0=poor))

**Q.** And the “Activity of the biocides … week 5” value ([3]; 0.05 wt % biocide added)?
**A.** 0 (no reduction or only a minor reduction of the microbe level is observed (residual level of at least 10^5 bacteria/10^4 mold/yeast cells per g) (score of 0=poor))

**Q.** And the “Activity of the biocides … week 6” value ([3]; 0.05 wt % biocide added)?
**A.** 0 (no reduction or only a minor reduction of the microbe level is observed (residual level of at least 10^5 bacteria/10^4 mold/yeast cells per g) (score of 0=poor))
